# Assay results reported in ChEMBL document CHEMBL3832024, “DailyMed|setid=d9db2fd3-a668-4d37-9082-18f6ceb8c3cb | CLARITHROMYCIN - clarithromycin tablet, film coated, extended release|Dispensing Solutions, Inc”.
# Where “and” joins values, the source holds several entries; their conditions need not be identical. Equal entries are not always repeated.
# How the values were obtained:
# Format in all cases: ADME, organism-based
# Homo sapiens [1] = test: Evaluation of pharmacokinetic parameters for 14 OH-Clarithromycin following multiple oral doses of Clarithromycin tablets.; design: dose 250 mg, dose 500 mg, dose 1000 mg, route oral; details: in vivo, dosed compound id 21, dosed compound name CLARITHROMYCIN, tissue Plasma
# Homo sapiens [2] = test: (§1) Evaluation of pharmacokinetic parameters for Clarithromycin following multiple oral doses of Clarithromycin tablets.; design: dose 250 mg, dose 500 mg, dose 1000 mg, route oral; details: in vivo, po, dosed compound id 21, dosed compound name CLARITHROMYCIN, regimen Every 12h; for Excretion: tissue Urine
# [3] = as §1; design: dose 250 mg, dose 500 mg, dose 1000 mg, route oral; details: human, in vivo, dosed compound id 21, dosed compound name CLARITHROMYCIN, route oral
# Homo sapiens [4] = test: (§2) Tmax for Clarithromycin evaluated after a single oral dose of 500 mg Clarithromycin tablets to fed and fasted subjects; details: in vivo, po, dietary status Fasting, dosed compound id 21, dosed compound name CLARITHROMYCIN, regimen Single dose, tissue Plasma
# [5] = as §2; details: human, in vivo, dietary status Fed, dosed compound id 21, dosed compound name CLARITHROMYCIN, regimen Single dose, tissue Plasma
"t1/2 (Homo sapiens [1]; dose 250 mg, regimen Every 12h, route oral) [h]","Tmax (Homo sapiens [1]; dose 500 mg, gender male and female, regimen Every 24h, route oral) [h]","t1/2 (Homo sapiens [1]; dose 500 mg, regimen Every 12h, route oral) [h]","Cmax ss (Homo sapiens [1]; gender male and female, regimen Every 24h) [ng/mL]",Cmax ss (Homo sapiens [1]; regimen Every 12h),Excretion (Homo sapiens [2]; at 250 mg) [%],Excretion (Homo sapiens [2]; at 500 mg) [%],"t1/2 (Homo sapiens [2]; dose 250 mg, tissue Plasma) [h]","Cmax ss (Homo sapiens [2]; gender male and female, tissue Plasma)","Cmax ss (Homo sapiens [2]; sampling time1 3 days, tissue Plasma)","dose excreted ([3]; po, at 250 mg, regimen Every 12h, tissue Urine, read-out: Excretion) [%]","Tmax ([3]; dose 500 mg, gender male and female, regimen Every 24h, tissue Plasma) [h]","half-life ([3]; dose 500 mg, regimen Every 12h, tissue Plasma) [h]",Tmax (Homo sapiens [4]) [h],Tmax [5] [h],SMILES
5 to 6,6,7 to 9,800,600 ng/mL and 1000 ng/mL,–,–,–,–,–,–,–,–,–,–,CO[C@]1(C)C[C@@H](C)C(=O)[C@H](C)[C@@H](O)[C@](C)(O)[C@@H](C(C)O)OC(=O)[C@H](C)[C@@H](O[C@H]2C[C@@](C)(OC)[C@@H](O)[C@H](C)O2)[C@H](C)[C@H]1O[C@@H]1O[C@H](C)C[C@H](N(C)C)[C@H]1O (stereo not given in full)
–,–,–,–,–,20,30,3 to 4,2000 to 4000 ng/mL and 5000 to 10000 ng/mL,1000 to 2000 ng/mL and 3000 to 4000 ng/mL,40,5 to 6,5 to 7,2,2.5,CC[C@H]1OC(=O)[C@H](C)[C@@H](O[C@H]2C[C@@](C)(OC)[C@@H](O)[C@H](C)O2)[C@H](C)[C@@H](O[C@@H]2O[C@H](C)C[C@H](N(C)C)[C@H]2O)[C@](C)(OC)C[C@@H](C)C(=O)[C@H](C)[C@@H](O)[C@]1(C)O [CLARITHROMYCIN]
